Measured values from paper PMC8053501 (Diabetes, Metabolic Syndrome and Obesity: Targets and …, 2021).
“Also recorded” adds a separate entry of the source. Read-outs that look alike come from different tables or passages of the source. Values belong to the compound of their own block, whether it stands above or below them.

What was measured:
[1] = system: diabetes mellitus patients; assay: Acute kidney injury; assay type: in vivo, human; details: for Association with AKI, Unadjusted (95% CI) / Association with AKI, Adjusted (95% CI): metformin as reference; for Association with AKI, Adjusted (95% CI): multivariate; for Events During the 90 days (AKI): primary endpoint, first 90 days, patients above 55 years; for Total endpoint (AKI events): primary plus secondary endpoint; for Events at secondary end (AKI): secondary endpoint, after 90 days of hospital admission; for Total Percent (incidence rate of AKI at the end of the study): share of the 4966 total outcomes
[2] = normal mice, oral gavage, 3mg/kg
in vivo = details: male, ICR, mouse, po; for Cmax / half-life: oral gavage; for half-life: t1/2, mouse
[3] = Endpoint Diagnosis with 1047 Outcome
[4] = Secondary Diagnosis with 3919 Outcomes

- Drug concentration, time course ([2]; Kidney, 0h): 0
- Drug concentration, time course ([2]; Kidney, 3h): 10,340
- Drug concentration, time course ([2]; Kidney, 6h): 8900
- Drug concentration, time course ([2]; Kidney, 9h): 6480
- Drug concentration, time course ([2]; Kidney, 12h): 2100
- Drug concentration, time course ([2]; Kidney, 15h): 450
- Drug concentration, time course ([2]; Kidney, 18h): 0
- Drug concentration, time course ([2]; Kidney, 21h): 0
- Drug concentration, time course ([2]; Kidney, 24h): 0
- Drug concentration, time course ([2]; Liver, 0h): 0
- Drug concentration, time course ([2]; Liver, 3h): 13,200
- Drug concentration, time course ([2]; Liver, 6h): 9800
- Drug concentration, time course ([2]; Liver, 9h): 6250
- Drug concentration, time course ([2]; Liver, 12h): 2300
- Drug concentration, time course ([2]; Liver, 15h): 400
- Drug concentration, time course ([2]; Liver, 18h): 50
- Drug concentration, time course ([2]; Liver, 21h): 0
- Drug concentration, time course ([2]; Liver, 24h): 0
- Drug concentration, time course ([2]; Plasma, 0h): 0
- Drug concentration, time course ([2]; Plasma, 3h): 250
- Drug concentration, time course ([2]; Plasma, 6h): 50
- Drug concentration, time course ([2]; Plasma, 9h): 30
- Drug concentration, time course ([2]; Plasma, 12h): 0
- Drug concentration, time course ([2]; Plasma, 15h): 0
- Drug concentration, time course ([2]; Plasma, 18h): 0
- Drug concentration, time course ([2]; Plasma, 21h): 0
- Drug concentration, time course ([2]; Plasma, 24h): 0
- Tmax (in vivo): 0.5 h
- Tmax (in vivo; 3 mg/kg): 0.5 h
- Cmax (in vivo; 3 mg/kg, Kidney): 12100 ng/mL
- Cmax (in vivo; 3 mg/kg, Liver): 11700 ng/mL
- Cmax (in vivo; 3 mg/kg, Plasma): 983 ng/mL
- half-life (in vivo; 3 mg/kg, Kidney): 4.5 h
- half-life (in vivo; 3 mg/kg, Liver): 3.6 h
- half-life (in vivo; 3 mg/kg, Plasma): 2.4 h
Structure (SMILES): Cc1ccc(-c2cc(C(F)(F)F)nn2-c2ccc(S(N)(=O)=O)cc2)cc1 [Celecoxib, celecoxib]
- Association with AKI, Unadjusted (95% CI) [1, 3]: 2.95 (2.68–3.25)
- Association with AKI, Adjusted (95% CI) [1, 3]: 2.32 (2.12–2.68)
- Association with AKI, Unadjusted (95% CI) [1, 4]: 1.87 (1.64–2.43)
- Association with AKI, Adjusted (95% CI) [1, 4]: 1.86 (1.53–2.77)
- Association with AKI compared to control drug metformin, in words ([1]; multivariate analysis): increased rate of AKI; also recorded: higher risk for AKI
- Events During the 90 days (AKI) [1]: 112
- Total endpoint (AKI events) [1]: 533
- Events at secondary end (AKI) [1]: 421
- Total Percent (incidence rate of AKI at the end of the study) [1]: 10.72%

- Drug concentration, time course ([2]; Kidney, 0h): 0
- Drug concentration, time course ([2]; Kidney, 3h): 18,500
- Drug concentration, time course ([2]; Kidney, 6h): 12,800
- Drug concentration, time course ([2]; Kidney, 9h): 9500
- Drug concentration, time course ([2]; Kidney, 12h): 5400
- Drug concentration, time course ([2]; Kidney, 15h): 2500
- Drug concentration, time course ([2]; Kidney, 18h): 500
- Drug concentration, time course ([2]; Kidney, 21h): 0
- Drug concentration, time course ([2]; Kidney, 24h): 0
- Drug concentration, time course ([2]; Liver, 0h): 0
- Drug concentration, time course ([2]; Liver, 3h): 7500
- Drug concentration, time course ([2]; Liver, 6h): 6000
- Drug concentration, time course ([2]; Liver, 9h): 1200
- Drug concentration, time course ([2]; Liver, 12h): 300
- Drug concentration, time course ([2]; Liver, 15h): 50
- Drug concentration, time course ([2]; Liver, 18h): 0
- Drug concentration, time course ([2]; Liver, 21h): 0
- Drug concentration, time course ([2]; Liver, 24h): 0
- Drug concentration, time course ([2]; Plasma, 0h): 0
- Drug concentration, time course ([2]; Plasma, 3h): 450
- Drug concentration, time course ([2]; Plasma, 6h): 310
- Drug concentration, time course ([2]; Plasma, 9h): 50
- Drug concentration, time course ([2]; Plasma, 12h): 0
- Drug concentration, time course ([2]; Plasma, 15h): 0
- Drug concentration, time course ([2]; Plasma, 18h): 0
- Drug concentration, time course ([2]; Plasma, 21h): 0
- Drug concentration, time course ([2]; Plasma, 24h): 0
- Tmax (in vivo): 1 h
- Tmax (in vivo; 3 mg/kg): 1 h
- Cmax (in vivo; 3 mg/kg, Kidney): 6440 ng/mL
- Cmax (in vivo; 3 mg/kg, Liver): 5050 ng/mL
- Cmax (in vivo; 3 mg/kg, Plasma): 578 ng/mL
- half-life (in vivo; 3 mg/kg, Kidney): 3.7 h
- half-life (in vivo; 3 mg/kg, Liver): 2.8 h
- half-life (in vivo; 3 mg/kg, Plasma): 2.6 h
Structure (SMILES): CC#CCn1c(N2CCC[C@@H](N)C2)nc2c1c(=O)n(Cc1nc(C)c3ccccc3n1)c(=O)n2C [Linagliptin, linagliptin]
- Association with AKI, Unadjusted (95% CI) [1, 3]: 0.97 (0.68–1.32)
- Association with AKI, Adjusted (95% CI) [1, 3]: 0.86 (0.72–1.46)
- Association with AKI, Unadjusted (95% CI) [1, 4]: 0.87 (0.72–1.21)
- Association with AKI, Adjusted (95% CI) [1, 4]: 1.23 (0.73–1.65)
- Events During the 90 days (AKI) [1]: 56
- Total endpoint (AKI events) [1]: 284
- Events at secondary end (AKI) [1]: 228
- Total Percent (incidence rate of AKI at the end of the study) [1]: 5.72%

- Drug concentration, time course ([2]; Kidney, 0h): 0
- Drug concentration, time course ([2]; Kidney, 3h): 4500
- Drug concentration, time course ([2]; Kidney, 6h): 3950
- Drug concentration, time course ([2]; Kidney, 9h): 1650
- Drug concentration, time course ([2]; Kidney, 12h): 100
- Drug concentration, time course ([2]; Kidney, 15h): 25
- Drug concentration, time course ([2]; Kidney, 18h): 0
- Drug concentration, time course ([2]; Kidney, 21h): 0
- Drug concentration, time course ([2]; Kidney, 24h): 0
- Drug concentration, time course ([2]; Liver, 0h): 0
- Drug concentration, time course ([2]; Liver, 3h): 8300
- Drug concentration, time course ([2]; Liver, 6h): 4800
- Drug concentration, time course ([2]; Liver, 9h): 2900
- Drug concentration, time course ([2]; Liver, 12h): 300
- Drug concentration, time course ([2]; Liver, 15h): 50
- Drug concentration, time course ([2]; Liver, 18h): 0
- Drug concentration, time course ([2]; Liver, 21h): 0
- Drug concentration, time course ([2]; Liver, 24h): 0
- Drug concentration, time course ([2]; Plasma, 0h): 0
- Drug concentration, time course ([2]; Plasma, 3h): 7500
- Drug concentration, time course ([2]; Plasma, 6h): 3000
- Drug concentration, time course ([2]; Plasma, 9h): 1200
- Drug concentration, time course ([2]; Plasma, 12h): 600
- Drug concentration, time course ([2]; Plasma, 15h): 200
- Drug concentration, time course ([2]; Plasma, 18h): 0
- Drug concentration, time course ([2]; Plasma, 21h): 0
- Drug concentration, time course ([2]; Plasma, 24h): 0
- Tmax (in vivo): 0.5 h
- Tmax (in vivo; 3 mg/kg): 0.5 h
- Cmax (in vivo; 3 mg/kg, Kidney): 5870 ng/mL
- Cmax (in vivo; 3 mg/kg, Liver): 5030 ng/mL
- Cmax (in vivo; 3 mg/kg, Plasma): 765 ng/mL
Structure (SMILES): N#C[C@@H]1CCCN1C(=O)CNC12CC3CC(CC(O)(C3)C1)C2 [Vildagliptin, vildagliptin]
- Association with AKI, Unadjusted (95% CI) [1, 3]: 1.23 (0.97–1.32)
- Association with AKI, Adjusted (95% CI) [1, 3]: 1.18 (0.92–1.35)
- Association with AKI, Unadjusted (95% CI) [1, 4]: 1.20 (0.72–1.38)
- Association with AKI, Adjusted (95% CI) [1, 4]: 1.07 (0.95–1.45)
- Events During the 90 days (AKI) [1]: 79
- Total endpoint (AKI events) [1]: 316
- Events at secondary end (AKI) [1]: 237
- Total Percent (incidence rate of AKI at the end of the study) [1]: 6.36%
